Results: ChEMBL document CHEMBL4196022, “Alkynyl-containing phenylthiazoles: Systemically active antibacterial agents effective against methicillin-resistant Staphylococcus aureus (MRSA)” (Eur J Med Chem, 2018)

Molecular target: T1, Farnesyl pyrophosphate synthase (Homo sapiens, UniProt P14324)
T1 sequence (P14324 whole entry): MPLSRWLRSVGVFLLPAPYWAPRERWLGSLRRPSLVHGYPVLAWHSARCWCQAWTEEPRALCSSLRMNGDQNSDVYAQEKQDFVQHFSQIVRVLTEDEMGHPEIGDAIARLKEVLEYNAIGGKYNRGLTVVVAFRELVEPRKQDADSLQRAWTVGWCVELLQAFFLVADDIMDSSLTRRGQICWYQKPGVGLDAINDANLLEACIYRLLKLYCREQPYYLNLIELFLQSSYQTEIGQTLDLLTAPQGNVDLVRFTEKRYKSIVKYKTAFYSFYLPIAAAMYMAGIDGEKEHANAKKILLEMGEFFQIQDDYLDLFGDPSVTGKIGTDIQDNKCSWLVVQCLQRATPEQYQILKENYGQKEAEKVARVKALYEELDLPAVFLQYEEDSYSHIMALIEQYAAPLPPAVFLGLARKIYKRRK
Assay: Inhibition of human FPPS; call rule not given here

C/C(=N\NC(=N)N)c1sc(-c2ccc(C#CC3CC3)cc2)nc1C
inhibition (INH): Not Active
